Where “and” joins values, the source holds several entries; their conditions need not be identical. Identical values can stand only once.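 Method: 48-hour compound exposure of cells in 96-well plates, five concentrations, linear interpolation of endpoints. The concentration for 50% growth inhibition is given as GI50.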 Calls of active or inactive are those of the source. Cut-off read from the data, not from the text of the source: active = GI50 up to about 1.1 µM and inactive = higher.
Experiments:
Test in all cases: DTP human tumour cell line panel, 48 h
786-0 = test system: 786-0
A498 = test system: A498
A549 = test system: A549
ACHN = test system: ACHN
BT-549 = test system: BT-549
CAKI-1 = test system: CAKI-1
CCRF-CEM = test system: CCRF-CEM
COLO 205 = test system: COLO 205
DLD-1 = test system: DLD-1
DMS-114 = test system: DMS-114
DMS-273 = test system: DMS-273
DU-145 = test system: DU-145
EKVX = test system: EKVX
HCC 2998 = test system: HCC 2998
HCT-116 = test system: HCT-116
HCT-15 = test system: HCT-15
HL-60 = test system: HL-60
HOP-62 = test system: HOP-62
HOP-92 = test system: HOP-92
HT-29 = test system: HT-29
Hs-578T = test system: Hs-578T
IGROV-1 = test system: IGROV-1
K562 = test system: K562
KM-20L2 = test system: KM-20L2
KM12 = test system: KM12
LOX IMVI = test system: LOX IMVI
LXFL 529 = test system: LXFL 529
M14 = test system: M14
M19-MEL = test system: M19-MEL
MCF7 = test system: MCF7
MDA-MB-231 = test system: MDA-MB-231
MDA-MB-435 = test system: MDA-MB-435
MDA-N = test system: MDA-N
MOLT-4 = test system: MOLT-4
Malme-3M = test system: Malme-3M
NCI-H226 = test system: NCI-H226
NCI-H23 = test system: NCI-H23
NCI-H460 = test system: NCI-H460
NCI-H522 = test system: NCI-H522
NCI/ADR-RES = test system: NCI/ADR-RES
OVCAR-3 = test system: OVCAR-3
OVCAR-4 = test system: OVCAR-4
OVCAR-5 = test system: OVCAR-5
OVCAR-8 = test system: OVCAR-8
PC-3 = test system: PC-3
RPMI-8226 = test system: RPMI-8226
RXF 393 = test system: RXF 393
RXF 631 = test system: RXF 631
SF-268 = test system: SF-268
SF-295 = test system: SF-295
SF-539 = test system: SF-539
SK-MEL-28 = test system: SK-MEL-28
SK-MEL-2 = test system: SK-MEL-2
SK-MEL-5 = test system: SK-MEL-5
SK-OV-3 = test system: SK-OV-3
SN12C = test system: SN12C
SNB-19 = test system: SNB-19
SNB-75 = test system: SNB-75
SR = test system: SR
SW-620 = test system: SW-620
T47D = test system: T47D
TK-10 = test system: TK-10
U-251 = test system: U-251
UACC-257 = test system: UACC-257
UACC-62 = test system: UACC-62
UO-31 = test system: UO-31
XF498 = test system: XF498
HOP-18 = test system: HOP-18
SNB-78 = test system: SNB-78

Measured: GI50

CN(C)[C@H]1CC[C@H]2[C@@H]3CCC4C[C@@H](NC(=O)NC(Cc5ccccc5)c5nccs5)CC[C@]4(C)[C@H]3CC[C@]12C (some centres undefined)
inactive: A498 1.69 µM | A549 1.58 µM | ACHN 1.76 µM | BT-549 1.79 µM | CAKI-1 1.7 µM | DLD-1 1.74 µM | DMS-114 1.79 µM | DMS-273 1.94 µM | DU-145 2.28 µM | EKVX 1.96 µM | HCC 2998 1.75 µM | HOP-92 1.53 µM | Hs-578T 2.19 µM | IGROV-1 1.87 µM | KM-20L2 1.19 µM | KM12 1.12 µM | LOX IMVI 1.66 µM | M14 1.69 µM | M19-MEL 1.85 µM | Malme-3M 1.85 µM | NCI-H226 2.09 µM | NCI-H23 1.77 µM | NCI-H522 2 µM | NCI/ADR-RES 1.77 µM | OVCAR-4 1.72 µM | OVCAR-5 1.76 µM | RXF 393 1.54 µM | RXF 631 1.92 µM | SF-268 1.66 µM | SF-539 1.75 µM | SK-OV-3 1.67 µM | SNB-19 1.79 µM | SNB-75 1.75 µM | SR 1.51 µM | T47D 1.76 µM | TK-10 2.04 µM | UACC-257 1.87 µM | UACC-62 1.92 µM | UO-31 1.69 µM | XF498 1.2 µM
0.687 µM: HCT-15
active: 786-0 0.512 µM | CCRF-CEM 0.29 µM | COLO 205 0.82 µM | HCT-116 0.955 µM | HL-60 0.218 µM | HOP-62 0.826 µM | HT-29 0.33 µM | K562 0.128 µM | LXFL 529 0.488 µM | MCF7 0.703 µM | MDA-MB-231 0.377 µM | MDA-MB-435 0.51 µM | MDA-N 0.35 µM | MOLT-4 0.566 µM | NCI-H460 1.06 µM | OVCAR-3 0.853 µM | OVCAR-8 0.667 µM | PC-3 0.509 µM | RPMI-8226 0.792 µM | SF-295 0.757 µM | SK-MEL-28 1.11 µM | SK-MEL-2 1.1 µM | SK-MEL-5 0.789 µM | SN12C 0.348 µM | SW-620 0.687 µM | U-251 0.698 µM

CC(=O)OCC1OC(n2c(=S)n(-c3ccccc3)c(=S)c3ccccc32)C(OC(C)=O)C(OC(C)=O)C1OC(C)=O (centres undefined)
inactive: 786-0 > 80.9 µM and 62.8 µM | HCT-116 > 89.1 µM and 57 µM | HOP-18 6.87 µM | HOP-92 > 37.7 µM and 41.1 µM | RXF 631 > 57.3 µM and 71.4 µM | SF-539 43.9 µM and 48.5 µM | TK-10 16.9 µM

O=[S@@]1Nc2ccc(Br)cc2S1
active: ACHN 1.07 µM | K562 0.766 µM | KM-20L2 0.294 µM | LOX IMVI 0.437 µM | LXFL 529 0.282 µM | NCI-H522 0.887 µM | SW-620 0.74 µM | UACC-62 1.07 µM | UO-31 1.05 µM
inactive: 786-0 > 100 µM | A549 4.56 µM | CAKI-1 1.15 µM | CCRF-CEM 1.64 µM | DLD-1 6.08 µM | DMS-273 1.73 µM | EKVX 41.6 µM | HCT-116 4.66 µM | HL-60 2.22 µM | HOP-92 > 100 µM | HT-29 2.13 µM | IGROV-1 53 µM | KM12 2.48 µM | M14 1.4 µM | M19-MEL 3.98 µM | MOLT-4 6.47 µM | Malme-3M 97.3 µM | NCI-H226 > 100 µM | NCI-H23 25.2 µM | OVCAR-3 31.2 µM | RPMI-8226 > 100 µM | RXF 631 3.3 µM | SF-268 2.44 µM | SF-295 40 µM | SF-539 3.94 µM | SK-MEL-28 4.53 µM | SK-MEL-2 4.67 µM | SK-MEL-5 12.6 µM | SK-OV-3 22.5 µM | SN12C 37.7 µM | SNB-19 2.77 µM | SNB-75 > 100 µM | SNB-78 > 100 µM | SR 7.14 µM | TK-10 2.79 µM | U-251 5.18 µM | UACC-257 > 100 µM | XF498 > 100 µM

CN(C(=O)C12C3C4C1C1C2C3C41C(=O)C(C)(C)C)C(C)(C)C (centres undefined)
inactive: 786-0 > 100 µM | A498 > 100 µM | A549 > 100 µM | ACHN > 100 µM | CAKI-1 > 100 µM | CCRF-CEM > 100 µM | COLO 205 > 100 µM | DLD-1 > 100 µM | DMS-114 > 100 µM | DMS-273 > 100 µM | EKVX > 100 µM | HCC 2998 > 100 µM | HCT-116 > 100 µM | HL-60 63.5 µM | HOP-62 > 100 µM | HT-29 > 100 µM | IGROV-1 > 100 µM | K562 > 100 µM | KM-20L2 > 100 µM | KM12 > 100 µM | LOX IMVI > 100 µM | LXFL 529 > 100 µM | M14 > 100 µM | M19-MEL > 100 µM | MOLT-4 > 100 µM | Malme-3M > 100 µM | NCI-H23 > 100 µM | NCI-H522 22 µM | OVCAR-3 > 100 µM | OVCAR-4 > 100 µM | OVCAR-5 > 100 µM | OVCAR-8 > 100 µM | RPMI-8226 > 100 µM | RXF 631 > 100 µM | SF-268 > 100 µM | SF-295 > 100 µM | SF-539 > 100 µM | SK-MEL-28 > 100 µM | SK-MEL-2 > 100 µM | SK-MEL-5 > 100 µM | SK-OV-3 > 100 µM | SN12C > 100 µM | SNB-19 > 100 µM | SNB-75 76 µM | SNB-78 > 100 µM | SW-620 > 100 µM | TK-10 > 100 µM | U-251 > 100 µM | UACC-257 > 100 µM | UACC-62 > 100 µM | UO-31 > 100 µM | XF498 > 100 µM

COC(=O)CC(C(C(C)=O)C(=O)OCc1ccccc1)N1C(=O)OCC1c1ccccc1 (centres undefined)
> 100 µM: HCT-15
inactive: 786-0 > 100 µM | A498 67.9 µM | A549 62.8 µM | ACHN > 100 µM | CCRF-CEM > 100 µM | COLO 205 > 100 µM | DLD-1 47.2 µM | DMS-114 52 µM | DMS-273 > 100 µM | EKVX > 100 µM | HCC 2998 > 100 µM | HCT-116 > 100 µM | HL-60 91.6 µM | HOP-62 > 100 µM | HT-29 > 100 µM | IGROV-1 50 µM | K562 > 100 µM | KM-20L2 > 100 µM | LOX IMVI > 100 µM | LXFL 529 83.2 µM | M14 > 100 µM | M19-MEL > 100 µM | MOLT-4 45.9 µM | Malme-3M > 100 µM | NCI-H226 60.5 µM | NCI-H23 > 100 µM | NCI-H460 75.2 µM | OVCAR-3 87.9 µM | OVCAR-4 71.3 µM | OVCAR-8 > 100 µM | RPMI-8226 51.5 µM | RXF 393 > 100 µM | RXF 631 > 100 µM | SF-268 > 100 µM | SF-295 > 100 µM | SF-539 > 100 µM | SK-MEL-28 > 100 µM | SK-MEL-2 > 100 µM | SK-MEL-5 47.8 µM | SN12C > 100 µM | SNB-19 > 100 µM | SNB-75 15.5 µM | SR 74.5 µM | SW-620 > 100 µM | TK-10 > 100 µM | U-251 65.2 µM | UACC-257 93.5 µM | UACC-62 44.2 µM | UO-31 44.4 µM | XF498 53.5 µM

From ChEMBL document CHEMBL1201862, “PubChem BioAssay data set” (2004)
